# Experimental data reported in patent publication US20220220135A1 (BAR-ILAN UNIVERSITY, priority 2019, published 2022).
# Experiments:
# NPP1 [1] = target: T1, NPP1 (Homo sapiens, UniProt P22413); test: Inhibition of human NPP1, pNP-TMP as substrate (analogues 9-12); assay type: biochemical
# T1 sequence (P22413 1-925): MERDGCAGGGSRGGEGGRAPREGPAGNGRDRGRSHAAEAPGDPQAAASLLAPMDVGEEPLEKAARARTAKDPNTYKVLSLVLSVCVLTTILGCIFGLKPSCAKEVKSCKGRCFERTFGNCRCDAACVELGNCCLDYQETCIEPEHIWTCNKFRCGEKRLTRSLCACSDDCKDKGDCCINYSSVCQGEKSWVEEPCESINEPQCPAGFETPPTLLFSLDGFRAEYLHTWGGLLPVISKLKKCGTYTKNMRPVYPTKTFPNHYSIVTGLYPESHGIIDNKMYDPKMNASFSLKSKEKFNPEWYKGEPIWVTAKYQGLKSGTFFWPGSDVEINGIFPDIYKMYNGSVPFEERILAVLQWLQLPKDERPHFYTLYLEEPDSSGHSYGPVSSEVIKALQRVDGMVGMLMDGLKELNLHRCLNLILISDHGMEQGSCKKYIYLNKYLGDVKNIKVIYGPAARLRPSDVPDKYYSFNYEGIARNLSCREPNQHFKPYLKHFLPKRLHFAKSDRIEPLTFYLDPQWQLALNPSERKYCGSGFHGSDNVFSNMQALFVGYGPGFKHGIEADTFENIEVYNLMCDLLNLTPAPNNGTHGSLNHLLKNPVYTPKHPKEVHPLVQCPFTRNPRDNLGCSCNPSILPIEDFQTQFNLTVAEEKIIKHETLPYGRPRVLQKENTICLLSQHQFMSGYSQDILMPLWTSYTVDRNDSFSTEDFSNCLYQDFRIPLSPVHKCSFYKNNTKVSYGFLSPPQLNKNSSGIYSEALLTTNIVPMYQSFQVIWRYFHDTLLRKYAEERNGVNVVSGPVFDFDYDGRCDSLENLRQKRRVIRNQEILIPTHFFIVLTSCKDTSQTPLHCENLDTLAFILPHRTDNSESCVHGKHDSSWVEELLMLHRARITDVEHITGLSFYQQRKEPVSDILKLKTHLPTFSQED
# Experimental: FIG. 2: Inhibition of NTPDases and NPPs by analogues 9-12 using as substrates ATP (100 μM) for NTPDase1,2,3,8 and pNP-TMP (100 μM) for NPP1,3 (Panel A); and ATP (100 μM) was used as the substrate for NPP1 (Panel B);
# Analogues 9-12 were evaluated for their ability to inhibit human NPP1.
# At least 2 independent experiments were performed. In panel A, the activity with 100 μM ATP was set as 100%, which was 287±31, 395±67, 278±22, 119±26 nmol of Pi·min−1·mg of protein−1 for human NTPDase1, -2, -3 and -8, respectively, and the activity with 100 μM pNP-TMP was set as 100% which was 67±5, 21±1 nmol of p-nitrophenol·min−1·mg of protein−1 for human NPP1 and NPP3, respectively. In panel B, the activity with 100 μM ATP was set as 100% which was 34±7 nmol of PPi·min−1·mg of protein−1 for NPP1.
# rat CD73 = target: T2, rat CD73 (Rattus norvegicus, UniProt P21588); test: Inhibition of rat CD73, 5 μM [3H]AMP as substrate; assay type: biochemical; details: 5 μM [3H]AMP as a substrate; n = 3
# T2 sequence (P21588 29-551): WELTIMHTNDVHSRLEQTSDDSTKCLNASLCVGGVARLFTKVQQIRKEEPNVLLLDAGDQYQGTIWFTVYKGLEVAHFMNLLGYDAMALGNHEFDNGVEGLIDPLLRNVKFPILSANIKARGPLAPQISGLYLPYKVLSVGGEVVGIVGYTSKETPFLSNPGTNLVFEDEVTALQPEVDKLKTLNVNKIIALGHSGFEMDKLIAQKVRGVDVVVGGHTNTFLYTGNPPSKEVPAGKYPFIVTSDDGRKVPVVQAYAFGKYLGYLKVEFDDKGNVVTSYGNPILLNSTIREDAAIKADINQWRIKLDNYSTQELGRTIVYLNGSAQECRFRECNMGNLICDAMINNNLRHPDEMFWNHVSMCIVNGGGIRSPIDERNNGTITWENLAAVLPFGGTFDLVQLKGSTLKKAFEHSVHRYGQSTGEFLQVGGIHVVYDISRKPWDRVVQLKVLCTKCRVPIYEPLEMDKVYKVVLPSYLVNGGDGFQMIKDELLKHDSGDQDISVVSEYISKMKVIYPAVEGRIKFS
# NPP1 [2] = target: T1, NPP1; test: Inhibition of human NPP1, 100 μM p-Nph-5′-TMP as substrate (Tables 5, 6)
# P2Y6R = P2Y6R (Homo sapiens, UniProt Q15077); test: Calcium mobilization in 1321N1 astrocytoma cells expressing human P2Y6R; assay type: cell-based; parameters: expressed in transfected cells; host or cells: 1321N1 astrocytoma cells (stably transfected)
# Experimental: Given the structural resemblance of 106-109 to the natural ligands of P2Y receptors, adenine and uracil nucleotides as natural substrates, were assessed for agonist potency on the human P2Y1, P2Y2, P2Y4, and P2Y6 receptor. To evaluate NPP1 selectivity of analogs 106-109, they were tested for their ability to activate of the uridine-nucleotide sensitive human recombinant P2Y1,2,4,6-receptors. The agonist potencies of this series of nucleotide analogues on the Gq protein-coupled human P2Y1R, P2Y2R, P2Y4R, and P2Y6R was determined by assessing its ability to induce calcium mobilization in stably transfected 1321N1 astrocytoma cells (Table 8). The nucleotide analogues were found in calcium mobilization assays to activate the P2Y2R with mid-micromolar potency.
# NPP1 [3] = target: T1, NPP1; test: Inhibition of human NPP1, 100 μM ATP as substrate (FIG. 9, Table 6); assay type: biochemical; details: ATP (100 μM) as a substrate
# Experimental: Each experiment was performed in triplicates;
# [4] = analogue at 100 μM, pNP-TMP 100 μM as substrate
# [5] = pNP-TMP as a substrate, mean±SEM
# [6] = pNP-TMP as a substrate, mean±SEM, read-out: Ki (μM), NPP1 inhibition
# Sequence of P2Y6R (Q15077 whole entry): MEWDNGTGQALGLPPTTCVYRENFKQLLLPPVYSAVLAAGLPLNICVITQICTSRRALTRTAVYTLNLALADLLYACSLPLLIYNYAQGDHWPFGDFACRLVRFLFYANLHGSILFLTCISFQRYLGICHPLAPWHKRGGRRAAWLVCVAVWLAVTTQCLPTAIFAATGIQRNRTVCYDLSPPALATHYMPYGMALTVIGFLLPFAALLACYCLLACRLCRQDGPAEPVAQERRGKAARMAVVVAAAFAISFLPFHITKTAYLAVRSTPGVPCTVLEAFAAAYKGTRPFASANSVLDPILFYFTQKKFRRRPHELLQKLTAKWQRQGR
compound,measurement,setting,value
O=c1ccn([C@@H]2O[C@H](COP(=S)(S)OP(=O)(O)OP(=O)(O)O)[C@@H](O)[C@H]2O)c(=O)[nH]1 (some centres unmarked) [Analogue 10],inhibition at 100 µM,NPP1 [1]; [4],100%
same,IC50,NPP1 [1]; [5],1.2 ± 0.1 µM
same,Ki,NPP1 [1]; [6],0.24 ± 0.02 µM
O=c1ccn([C@@H]2O[C@H](COP(=S)(S)OP(=O)(O)CP(=O)(O)O)[C@@H](O)[C@H]2O)c(=O)[nH]1 (some centres unmarked) [Analogue 11],IC50,NPP1 [1]; [5],4.3 ± 0.1 µM
same,Ki,NPP1 [1]; [6],1.11 ± 0.19 µM
O=c1ccn([C@@H]2O[C@H](COP(=S)(S)OP(=O)(O)OP(=O)(O)OP(=S)(S)OC[C@H]3O[C@@H](n4ccc(=O)[nH]c4=O)[C@H](O)[C@@H]3O)[C@@H](O)[C@H]2O)c(=O)[nH]1 (some centres unmarked) [Analogue 12],inhibition of human NPP1,NPP1 [1]; [4],effectively blocked
same,IC50,NPP1 [1]; [5],0.125 ± 0.004 µM
same,Ki,"NPP1 [1]; pNP-TMP as the substrate, read-out: Ki, NPP1",0.027 µM
Nc1ncnc2c1ncn2COCCOP(=S)(S)OP(=O)(O)O (centres unmarked) [compound 106],"% inhibition ± SEM, rat CD73",rat CD73,n.i.d
same,Ki,NPP1 [2],1810 nM
same,inhibition at 10 µM,"NPP1 [2]; read-out: % inhibition ± SEM at 10 μM, human NPP1",67 ± 1%
same,"% activation at 10 μM, P2Y6",P2Y6R,−2 ± 1%
same,inhibition at 10 µM,"NPP1 [3]; 10 μM, n = 3, read-out: % inhibition ± SEM at 10 μM, human NPP1",68 ± 1%
same,Ki,"NPP1 [3]; read-out: Ki (μM ± SD), human NPP1 (converted)",0.305 µM
